# In patent publication US8664213B2, “Spiro bicyclic diamine derivatives as HIV attachment inhibitors” (priority 2011, dated 2014):
# Read-outs that look alike come from different tables or passages of the source.
# System: HIV-1 LAI
# Assay: Single-round infectious luciferase reporter virus (HIV-1 LAI envelope) infection of MT2 cells
# Assay type: cell-based
# Details: Human immunodeficiency virus 1, MT2, 72 h
# Text: • Virus Production— • Human embryonic Kidney cell line, 293T (HEK 293T), was propagated in Dulbecco's Modified Eagle Medium (Invitrogen, Carlsbad, Calif.) containing 10% fetal Bovine serum (FBS, Sigma, St. Louis, Mo.). The human T-cell leukemia cell MT2 (AIDS Research and Reference Reagent Program, Cat. 237) was propagated in RPMI 1640 (Invitrogen, Carlsbad, Calif.) containing 10% fetal bovine serum (FBS, Hyclone, Logan, Utah) • Virus Infection— • Single-round infectious reporter virus was produced by co-transfecting HEK 293T cells with plasmide expressing the HIV-1 LAI envelope along with a plasmid containing an HIV-1 LAI proviral cDNA with the envelope gene replaced by a firefly luciferase reporter gene (Chen et al, Ref 41). Transfections were performed using lipofectAMINE PLUS reagent as described by the manufacturer (Invitrogen, Carlsbad, Calif.).
# • 1. MT2 cells were plated in black, 384 well plates at a cell density of 5×10^3 cells per well in 25 μl RPMI 1640 containing 10% FBS. • 2. Compound (diluted in dimethylsulfoxide and growth medium) was added to cells at 12.5 μl/well, so that the final assay concentration would be ≦50 nM. • 3. 12.5 μl of single-round infectious reporter virus in Dulbecco's Modified Eagle Medium was added to the plated cells and compound at an approximate multiplicity of infection (MOI) of 0.01, resulting in a final volume of 50 μl per well. • 4. Virus-infected cells were incubated at 37 degrees Celsius, in a CO2 incubator, and harvested 72 h after infection. • 5. Viral infection was monitored by measuring luciferase expression in the infected cells using a luciferase reporter gene assay kit (Steady-Glo, Promega, Madison, Wis.) as described by the manufacturer. Luciferase activity was then quantified by measuring luminescence using an EnVision Multilabel Plate Readers (PerkinElmer, Waltham, Mass.). • 6. The percent inhibition for each compound was calculated by quantifying the level of luciferase expression in cells infected in the presence of each compound as a percentage of that observed for cells infected in the absence of compound and subtracting such a determined value from 100. • 7. An EC50 provides a method for comparing the antiviral potency of the compounds of this disclosure. The effective concentration for fifty percent inhibition (EC50) was calculated with the Microsoft Excel Xlfit curve fitting software. For each compound, curves were generated from percent inhibition calculated at 10 different concentrations by using a four parameter logistic model (model 205). Table 1 is the key for the data in Table 2.
# [1] = read-out: EC50 Group from Table 1
SMILES,EC50 [1] [µM],EC50 [µM]
COc1cnc(-n2cnc(C)n2)c2[nH]cc(C(=O)C(=O)N3CCC4(CCN(C(=O)c5ccccc5)C4)C3)c12 (centres unmarked) [Compound 2004],> 0.5,
"COc1cnc(-n2cnc(C)n2)c2[nH]cc(C(=O)C(=O)N3CCC4(CCN(c5nnnn5-c5ccccc5)C4)C3)c12 (centres unmarked) [Compound 1002, 1-(4-methoxy-7-(3-methyl-1H-1,2,4-triazol-1-yl)-1H-pyrrolo[2,3-c]pyridin-3-yl)-2-(7-(1-phenyl-1H-tetrazol-5-yl)-2,7-diazaspiro[4.4]nonan-2-yl)ethane-1,2-dione]",< 0.5,
"COc1cnc(-n2cnc(C)n2)c2[nH]cc(C(=O)C(=O)N3CC4(C3)CN(c3nnnn3-c3ccccc3)C4)c12 [Compound 4001, 1-(4-methoxy-7-(3-methyl-1H-1,2,4-triazol-1-yl)-1H-pyrrolo[2,3-c]pyridin-3-yl)-2-(6-(1-phenyl-1H-tetrazol-5-yl)-2,6-diazaspiro[3.3]heptan-2-yl)ethane-1,2-dione]",< 0.5,0.219
COc1cnc(-n2cnc(C)n2)c2[nH]cc(C(=O)C(=O)N3CCC4(CCN(Cc5ccccc5)C4)C3)c12 (centres unmarked) [Compound 2002],> 0.5,
"O=C(C(=O)N1CCC2(CCN(c3nnnn3-c3ccccc3)C2)C1)c1c[nH]c2c(-n3ccnn3)ncc(F)c12 (centres unmarked) [Compound 1001, 1-(4-fluoro-7-(1H-1,2,3-triazol-1-yl)-1H-pyrrolo[2,3-c]pyridin-3-yl)-2-(7-(1-phenyl-1H-tetrazol-5-yl)-2,7-diazaspiro[4.4]nonan-2-yl)ethane-1,2-dione]",< 0.5,0.00565
O=C(C(=O)N1CCC2(CCN(C(=O)c3ccccc3)C2)C1)c1c[nH]c2c(-n3ccnn3)ncc(F)c12 (centres unmarked) [Compound 2003],> 0.5,
